≈ marks a conversion by molar mass, not a printed value. Read-outs that look alike come from different tables or passages of the source. *1 amine or outer side, *2 acyl side, *3 side chain or, on linkers, in order; H or OH if unused. Where a SMILES comes first, the peptide text is derived from it. [ ]: non-standard residue; d: D form. The star is where a group is joined. X1 = O=C(c1cc([N+](=O)[O-])n[nH]1)*; X2 = O=C(c1cc(N[*:1])n[nH]1)[*:2]; AEEEA = NCCOCCOCCOCC(=O)O
Assays:
Aβ(1-42) = biological target: T1, Aβ(1-42) (Homo sapiens, UniProt P05067); assay: ThT equilibrium inhibition assay of Aβ aggregation; type: biochemical; conditions: for ThT fluorescence level, inhibition of aggregation: 33 μM Aβ42, 198 μM ligand, 10 mM PBS pH 7.3, 72 h
T1 construct: Aβ(1-42)-peptide (Bachem, Bubendorf, Germany) was prepared in HFIP; purchased Bachem, Bubendorf
Description: After 72 h, the aggregation process has reached a maximum in the absence or presence of any trimeric ligand, even for the slow Aβ (1-40) peptide. The respective equilibrium concentration is then indicated by the relative fluorescence intensity reached at the end point. The full series of new aminopyrazole trimer derivatives was subjected to ThT inhibition experiments and the final equilibrium was analyzed by comparison of the respective fluorescence intensities of intercalated dye at 482 nm (exc. at 442 nm). […] Their proposed mechanism of action is discussed within the next chapters together with all the other biophysical, biochemical as well as modeling data.
(§1) Thioflavin T (ThT) measurements were carried out in a 384-well plate (Nunc GmbH, Wiesbaden, Germany) in an InfiniTe 200 plate reader (Tecan GmbH, Crailsheim, Germany). Fluorescence intensity was measured at 37° C., 446 nm excitation wavelength (bandwidth 9 nm) and 490 nm emission wavelength with a bandwidth of 20 nm. Each data point was averaged over 40 lamp flashes. Each measurement cycle was started by shaking the sample carrier orbitally for 30 s at medium intensity to avoid settling of larger aggregates. The 384-well plate was covered with a transparent and DMSO-stable film (Nunc GmbH, Wiesbaden, Germany). Each single sample was composed of 33 μM Aβ(1-40) or rather Aβ(1-42) in 10 mM PBS (phosphate buffered saline), 10.7% DMSO, 10 μM ThT and 198 μM of the test compound. For graph representation emission values of fourfold samples were averaged. Each test compound was measured separately, both in 10 mM PBS and 10 mM PBS with ThT to exclude any potential interactions between ligand and ThT.
The ThT assay solution was briefly centrifugated and it was pipetted in a 384-well plate. The ThT fluorescence was measured at λEx=446 nm and λEm=490 nm. Each point is the average of quadruplication.

[1] = biological target: T2, preformed Aβ(1-42) fibrils (Homo sapiens, UniProt P05067); assay: ThT equilibrium disaggregation assay of preformed fibrils; type: biochemical; conditions: 33 μM Aβ42 preformed fibrils, 198 μM ligand, 10 mM PBS pH 7.3
T2 construct: Aβ(1-42)-peptide (Bachem, Bubendorf, Germany) was prepared in HFIP; purchased Bachem, Bubendorf
Source text: Starting from preformed fibrils, the disassembly process was also monitored with the full series of modified trimeric aminopyrazoles. […] In other words, little difference is observed between the end points of aggregation assays, in which the ligand inhibits de novo aggregation starting from monomeric Aβ molecules, and those experiments, which require disaggregation of preformed fibrils by externally added ligand. Experimental evidence is thus provided for the fact, that aminopyrazole ligands operate in a fully reversible fashion, and reach an open equilibrium when the thermodynamically most favorable complex is formed.
as §1
After that, 9.5 μL ThT (62.7 μM stock solution) was pipetted and the assay solution was briefly centrifugated. The ThT fluorescence was measured at λEx=446 nm and λEm=490 nm. For graph representation emission values of fourfold samples were averaged.

[2] = tested on: differentiated rat pheochromocytoma (PC-12) cells; assay: cells
Description: Next, to examine whether the aminopyrazole trimers could protect cell from Aβ42-induced neurotoxicity, cells were treated for […] with 10 μM Aβ(1-42), a concentration that produces 30 to 40% decrease in cell viability, in the absence or presence of 100 μM of each compound. The viability of the cells then was assessed using the MTT assay.
MTT viability assays. Cell viability assays were performed as described in Fradinger et al. (Fradinger et al., PNAS, 2008). Rat pheochromocytoma (PC-12) cells were maintained in F-12 nutrient mixture with Kaighn's modification (F-12K) (Gibco BRL, Carlsbad, Calif.) with 15% heat-inactivated horse serum and 2.5% FBS at 37° C. in an atmosphere of 5% CO2. For cell viability assays, cells were plated in 96-well plates at a density of 25,000 cells per well in differentiation media (F-12K, 0.5% FBS, […] nerve growth factor) and maintained for 48 h. Aβ42 was solubilized in a minimal amount of DMSO (Sigma) and then diluted in the F-12K media in the absence or presence of the compounds and then added to cells and incubated for 48 h at 37° C. The final Aβ42 concentration was always kept constant at 10 μM. The stock solutions of the compounds were prepared at 10 mM in DMSO and diluted in the F-12K media at the required concentration. Negative controls included DMSO at the same concentration as in the peptide solutions and media alone. A positive control was […] staurosporine as lethal dose which represented 100% reduction in cell viability, based on which the percentage viability of all of the experimental conditions was calculated. Cell viability was assessed quantitatively by the CellTiter 96 Non-Radioactive Cell Proliferation Assay (Promega). Briefly, 15 μl of 3-(4,5-dimethylthiazol-2-yl)-2,5-diphenyltetra-zolium bromide (MTT) dye solution was incubated with the cells for 3 h. Then 100 μl of solubilization/stop solution was added and the plates were incubated overnight in the dark to ensure complete solubilization. Plates were read by using a Synergy HT microplate reader (BioTek), and the absorbance at 570 nm (formazan product) minus the absorbance at 630 nm (background) was recorded. Corrected absorbance was used to calculate the percent cell viability from the experimental change (Amedia-Aexperimental) over the dynamic range (Amedia-Astaurosporine). At least three independent experiments with six replicates (n≧18) were carried out, and the results were averaged.
To determine the IC50 value of each of the compounds, dose-dependence MTT experiments with the compounds were conducted. Aβ42 was used at 10 μM and the compounds were used at 100, 30, 10, 3, 1 and 0.3 μM. Three independent experiments with six replicates (n≧18) were carried out, and results were averaged. The data for each compound was fitted to the following equation to get the IC50 values. y=Bottom+((Top−Bottom)/(1+10^(x-log(IC^50^))))
Top: the y value at which the top of the sigmoidal curve becomes parallel to the X-axis; Bottom: the y value at which the bottom of the sigmoidal curve becomes parallel to the X-axis.
Also, MTT viability assays were run with differentiated PC-12 cells.

T1 sequence (P05067 672-713 limits assumed): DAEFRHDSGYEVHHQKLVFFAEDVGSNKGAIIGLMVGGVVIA
T2 sequence (P05067 672-713 limits assumed): as above

| SMILES | solubility | ThT fluorescence level, inhibition of aggregation (Aβ(1-42)) | ThT fluorescence level, disaggregation [1] | IC50 [2] | viability increase (rescue from Aβ toxicity) ([2]; PC-12 cells, 10 μM Aβ(1-42), 100 μM compound) | IC50 ([2]; read-out: IC50 of inhibition of Aβ-induced toxicity, PC-12 cells, MTT, Aβ42 10 μM, ligand 0.3-100 μM) | ThT values compared with the original trimer (Aβ(1-42); Aβ(1-42), in words) |
| --- | --- | --- | --- | --- | --- | --- | --- |
| NCCCC[C@H](NC(=O)c1cc(NC(=O)c2cc(NC(=O)c3cc([N+](=O)[O-])n[nH]3)n[nH]2)n[nH]1)C(=O)N[C@@H](CCCCN)C(=O)N[C@@H](CCCCN)C(=O)N[C@@H](CCCCN)C(=O)N[C@@H](CCCCN)C(=O)NCC(=O)O [Trimer-KKKKKG-OH, 3-(3-(3-nitro-1H-pyrazole-5-carboxamido)-1H-pyrazole-5-carboxamido)-1H-pyrazole-5-carboxamido-(S)-lysinyl-(S)-lysinyl-(S)-lysinyl-(S)-lysinyl-(S)-lysinyl-(S)-glycine] (X1-[X2][X2]KKKKKG-OH) | > 4.95 mM | 20% | 20% | – | – | – | – |
| CC(C)C[C@H](NC(=O)[C@H](CCCCN)NC(=O)COCCOCCOCCNC(=O)c1cc(NC(=O)c2cc(NC(=O)c3cc([N+](=O)[O-])n[nH]3)n[nH]2)n[nH]1)C(=O)N[C@H](C(=O)N[C@@H](Cc1ccccc1)C(=O)N[C@@H](Cc1ccccc1)C(=O)O)C(C)C [Trimer-TEG-KLVFF-OH, 1-(3-(3-(3-Nitro-1H-pyrazole-5-carboxamido)-1H-pyrazole-5-carbox-amido)-1H-pyrazol-5-yl)-1-oxo-5,8,11-trioxa-2-azatridecan-13-carboxamido-(S)-lysinyl-(S)-leucinyl-(S)-valinyl-(S)-phenylalaninyl-(S)-phenylalanine] (X1-[X2][X2][AEEEA]KLVFF-OH) | 0.2 to 4.95 mM (≈ 240 to 5940 µg/mL) | – | – | > 100 µM | – | – | – |
| COC(=O)C(CCCCN)NC(=O)COCCOCCOCCNC(=O)c1cc(NC(=O)c2cc(NC(=O)c3cc([N+](=O)[O-])n[nH]3)n[nH]2)n[nH]1.O=C(O)C(F)(F)F (stereo not shown) [Trimer-TEG-Lys-OMe, Trifluoro-acetate5-methoxycarbonyl-5-(2-{2-[2-(2-{[5-({5-[(5-nitro-2H-pyrazole-3-carbonyl)-amino]-2H-pyrazole-3-carbonyl}-amino)-2H-pyrazole-3-carbonyl]-amino}-ethoxy)-ethoxy]ethoxy}-acetylamino)-pentyl-ammonium] | – | 20% | 20% | – | > 40% | 52.7 µM | surpass the original trimer activity |

Source: US8481494B2, “Compounds for the treatment of diseases related to protein misfolding” (priority 2009, dated 2013)
